Read-outs that look alike come from different tables or passages of the source.
Legend:
hGLP1R = target: T1, hGLP1R (Homo sapiens, UniProt P43220); test: hGLP1R CreLuc reporter gene assay in 0.5% and 100% plasma; type: cell-based; conditions: CreLuc reporter gene assay
T1 construct: expressed in transfected cells; host or cells: HEK-293 cells carrying a CRE-luciferase reporter gene
Outline: (§1)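 Agonist EC50s came from 8-concentration curves over four decades, fitted by non-linear variable-slope regression of CRE-driven luciferase luminescence. Cells were exposed 4 h at 37 °C, in buffer with 0.5% human plasma or in 100% plasma; GIPR was expressed in CHO cells, GLP-1R and NPY2R in HEK cells.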

hGIPR = target: T2, hGIPR (Homo sapiens, UniProt P48546); test: hGIPR CreLuc reporter gene assay in 0.5% and 100% plasma; type: cell-based; conditions: CreLuc reporter gene assay
T2 construct: expressed in transfected cells; host or cells: CHO cells carrying a CRE-luciferase reporter gene
T2 sequence (P48546 22-466): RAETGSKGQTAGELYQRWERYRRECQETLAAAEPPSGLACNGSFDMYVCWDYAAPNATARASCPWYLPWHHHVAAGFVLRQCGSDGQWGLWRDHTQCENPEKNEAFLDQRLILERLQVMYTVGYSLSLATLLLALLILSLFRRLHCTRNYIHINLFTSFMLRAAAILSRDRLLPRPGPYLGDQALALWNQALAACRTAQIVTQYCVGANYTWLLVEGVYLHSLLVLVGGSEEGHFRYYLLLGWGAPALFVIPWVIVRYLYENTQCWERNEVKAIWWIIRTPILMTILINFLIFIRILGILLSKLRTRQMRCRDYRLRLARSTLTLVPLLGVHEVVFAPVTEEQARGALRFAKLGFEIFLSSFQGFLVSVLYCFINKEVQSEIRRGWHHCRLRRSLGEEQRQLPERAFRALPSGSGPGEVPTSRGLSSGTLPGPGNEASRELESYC
Outline: as §1

hNPY2R = target: T3, hNPY2R (Homo sapiens, UniProt P49146); test: hNPY2R CreLuc reporter gene assay in 0.5% and 100% plasma; type: cell-based; conditions: CreLuc reporter gene assay
T3 construct: expressed in transfected cells; host or cells: HEK-293 cells carrying a CRE-luciferase reporter gene
T3 sequence (P49146 1-381): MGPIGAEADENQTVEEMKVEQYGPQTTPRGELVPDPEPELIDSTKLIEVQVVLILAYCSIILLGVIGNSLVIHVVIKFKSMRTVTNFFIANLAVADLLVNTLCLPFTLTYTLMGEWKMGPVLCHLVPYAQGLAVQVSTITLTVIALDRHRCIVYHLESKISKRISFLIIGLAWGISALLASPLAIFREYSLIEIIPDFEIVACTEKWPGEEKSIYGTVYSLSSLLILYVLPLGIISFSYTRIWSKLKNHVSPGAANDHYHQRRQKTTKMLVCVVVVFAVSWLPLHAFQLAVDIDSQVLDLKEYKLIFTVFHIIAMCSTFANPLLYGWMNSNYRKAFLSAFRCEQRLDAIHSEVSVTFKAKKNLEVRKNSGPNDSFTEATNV
Outline: as §1

[1] = Mouse PK after intravenous application; type: in vivo; conditions: plasma, mean residence time, intravenous 30-60 nmol/kg, male NMRI mice
Outline: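 Male NMRI mice (30–40 g) received 30-60 nmol/kg peptide by tail-vein injection, dissolved in 50 mM phosphate buffer (pH 7.4)/3.5% mannitol. Saphenous blood was sampled up to 56 hours post-dose and EDTA plasma analysed by LC-MS. PK parameters came from non-compartmental analysis.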

[2] = Effect on acute food intake in normal NMRI mice; type: in vivo; conditions: 30 nmol/kg subcutaneously once, normalized to vehicle group, male NMRI mice
Experimental: Example 4: Effect on Acute Food Intake in Normal NMRI Mice
Male NMRI mice were obtained from Janvier (Janvier Labs, France) or from Charles River (Charles River Research Models & Services Germany GmbH) at the age of 3 weeks. The animals get a microchip (Datamars, Slim Microchip T-SL) for individual identification after delivery. They were housed with 4 mice per cage under a 12/12 dark-light cycle, light off at 3 p.m. Room temperature was controlled to 21° C. +/−1° C. and humidity 60%+/−20%. Mice had ad libitum access to regular rodent chow (KLIBA Nafag 3040 or Altromin 1324, Brogaarden, Denmark) and tap water.
Latest transfer into the HM2-System of MBRose, Denmark (real-time monitoring system of food- and water intake) of the animals 5 days before study start, to allow acclimatization to experimental conditions. As the animals were uniquely identified with the microchips, each individual animal was identified by its own microchip upon entry and exit from the food channel via antennae. Randomization of the mice for each study group (n=8; age earliest 6 weeks old) was based on food intake (middle of last three days 24 h-Intervall) and bodyweight directly before start of the study. A vehicle treated (50 mM phosphate buffer pH7.4 with 3.5% Mannitol) group was included in each experiment. To have the same nutrition standard for each animal the food access was locked eight hours before dark phase. One hour before night, the animals were once treated subcutaneously with the test peptide. Food intake was reported hourly for a period of 24 h.

[3] = 0.5% human plasma, read-out: hGLP1R 0.5% hP
[4] = 0.5% human plasma, read-out: hGIPR 0.5% hP
[5] = 0.5% human plasma, read-out: hNPY2R 0.5% hP
[6] = 100% human plasma, read-out: hNPY2R 100% hP

T1 sequence (P43220 24-463): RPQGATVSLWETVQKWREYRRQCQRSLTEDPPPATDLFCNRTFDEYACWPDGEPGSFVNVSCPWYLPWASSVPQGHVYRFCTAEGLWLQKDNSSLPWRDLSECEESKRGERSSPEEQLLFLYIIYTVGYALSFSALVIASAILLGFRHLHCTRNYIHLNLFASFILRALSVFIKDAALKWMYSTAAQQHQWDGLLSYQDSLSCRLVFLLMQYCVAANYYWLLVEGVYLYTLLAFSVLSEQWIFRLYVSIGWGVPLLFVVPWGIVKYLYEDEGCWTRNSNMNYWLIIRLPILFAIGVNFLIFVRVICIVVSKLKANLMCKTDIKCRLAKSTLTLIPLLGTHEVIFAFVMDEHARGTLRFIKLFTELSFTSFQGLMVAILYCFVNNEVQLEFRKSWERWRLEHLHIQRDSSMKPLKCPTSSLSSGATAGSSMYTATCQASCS

EC50 (hGLP1R; [3]) [nM] | EC50 (hGIPR; [4]) [nM] | EC50 (hNPY2R; [5]) [nM] | EC50 (hNPY2R; [6]) [nM] | MRT [1] [h] | EC50 (hGLP1R; 100% human plasma, read-out: hGLP1R 100% hP) [nM] | EC50 (hGIPR; 100% human plasma, read-out: hGIPR 100% hP) [nM] | Compound | Acute Food Intake 24 h 30 nmol/kg [% CTL] [2] [% CTL]
0.11 | 0.14 | 12.4 | 49.3 | 11 |  |  | CC[C@H](C)[C@H](NC(=O)[C@H](CC(C)C)NC(=O)[C@H](Cc1c[nH]c2ccccc12)NC(=O)[C@H](CCC(=O)O)NC(=O)[C@@H](NC(=O)[C@H](Cc1ccccc1)NC(=O)[C@H](C)NC(=O)C(C)(C)NC(=O)[C@H](CCC(N)=O)NC(=O)[C@H](C)NC(=O)[C@H](CCC(N)=O)NC(=O)[C@H](CCCCN)NC(=O)[C@H](CCC(=O)O)NC(=O)[C@H](CC(C)C)NC(=O)C(C)(C)NC(=O)[C@@H](NC(=O)[C@H](CO)NC(=O)[C@H](Cc1ccc(O)cc1)NC(=O)[C@H](CC(=O)O)NC(=O)[C@H](CO)NC(=O)[C@@H](NC(=O)[C@H](Cc1ccccc1)NC(=O)[C@@H](NC(=O)CNC(=O)[C@H](CCC(=O)O)NC(=O)C(C)(C)NC(=O)[C@@H](N)Cc1ccc(O)cc1)[C@@H](C)O)[C@@H](C)O)[C@@H](C)CC)C(C)C)C(=O)N[C@@H](CCCCNC(=O)[C@@H](N)CCCCNC(=O)CC[C@H](NC(=O)CC[C@H](NC(=O)CC[C@H](NC(=O)CC[C@H](NC(=O)CC[C@H](NC(=O)CC[C@H](NC(=O)CCCCCCCCCCCCCCCCCCC(=O)O)C(=O)O)C(=O)O)C(=O)O)C(=O)O)C(=O)O)C(=O)O)C(=O)NCC(=O)NCC(=O)N1CCC[C@H]1C(=O)N[C@@H](CO)C(=O)N[C@@H](CO)C(=O)NCC(=O)N[C@@H](C)C(=O)N[C@@H](CO)C(=O)N[C@@H](CC(C)C)C(=O)N[C@@H](CCCNC(=N)N)C(=O)N[C@@H](Cc1c[nH]cn1)C(=O)N[C@@H](Cc1ccc(O)cc1)C(=O)N[C@@H](Cc1ccc(O)cc1)C(=O)N[C@@H](CC(N)=O)C(=O)N[C@@H](Cc1c[nH]c2ccccc12)C(=O)N[C@@H](CC(C)C)C(=O)N[C@H](C(=O)N[C@@H](CCCNC(=N)N)C(=O)N[C@@H](CCC(N)=O)C(=O)N[C@@H](CCCNC(=N)N)C(=O)N[C@@H](Cc1ccc(O)cc1)C(N)=O)[C@@H](C)O [Compound 221, Y-Aib-E-G-T-F-T-S-D-Y-S-I-Aib-L-E-K-Q-A-Q-Aib-A-F-V-E-W-L-I-K(1,3)-GGPSSGASLRHYYNWLTRQRY-NH2.C20DA-gGlu-gGlu-gGlu-gGlu-gGlu-gGlu-eLys(1,2)] | 51
0.24 | 0.19 | 13.3 |  | 11.8 |  |  | CC[C@H](C)[C@H](NC(=O)[C@H](CC(C)C)NC(=O)[C@H](Cc1c[nH]c2ccccc12)NC(=O)[C@H](CCC(=O)O)NC(=O)[C@@H](NC(=O)[C@H](Cc1ccccc1)NC(=O)[C@H](C)NC(=O)C(C)(C)NC(=O)[C@H](CCC(N)=O)NC(=O)[C@H](C)NC(=O)[C@H](CCC(N)=O)NC(=O)[C@H](CCCCN)NC(=O)[C@H](CCC(=O)O)NC(=O)[C@H](CC(C)C)NC(=O)C(C)(C)NC(=O)[C@@H](NC(=O)[C@H](CO)NC(=O)[C@H](Cc1ccc(O)cc1)NC(=O)[C@H](CC(=O)O)NC(=O)[C@H](CO)NC(=O)[C@@H](NC(=O)[C@H](Cc1ccccc1)NC(=O)[C@@H](NC(=O)CNC(=O)[C@H](CCC(=O)O)NC(=O)C(C)(C)NC(=O)[C@@H](N)Cc1ccc(O)cc1)[C@@H](C)O)[C@@H](C)O)[C@@H](C)CC)C(C)C)C(=O)N[C@@H](CCCCNC(=O)[C@@H](N)CCCCNC(=O)CC[C@H](NC(=O)CC[C@H](NC(=O)CC[C@H](NC(=O)CC[C@H](NC(=O)CC[C@H](NC(=O)CC[C@H](NC(=O)CCCCCCCCCCCCCCCCCCC(=O)O)C(=O)O)C(=O)O)C(=O)O)C(=O)O)C(=O)O)C(=O)O)C(=O)NCC(=O)NCC(=O)N1CCC[C@H]1C(=O)N[C@@H](CO)C(=O)N[C@@H](CCC(=O)O)C(=O)NCC(=O)N[C@@H](C)C(=O)N[C@@H](CO)C(=O)N[C@@H](CC(C)C)C(=O)N[C@@H](CCCNC(=N)N)C(=O)N[C@@H](Cc1c[nH]cn1)C(=O)N[C@@H](Cc1ccc(O)cc1)C(=O)N[C@@H](Cc1ccc(O)cc1)C(=O)N[C@@H](CC(N)=O)C(=O)N[C@@H](Cc1c[nH]c2ccccc12)C(=O)N[C@@H](CC(C)C)C(=O)N[C@H](C(=O)N[C@@H](CCCNC(=N)N)C(=O)N(C)[C@@H](CCC(N)=O)C(=O)N[C@@H](CCCNC(=N)N)C(=O)N[C@@H](Cc1ccc(O)cc1)C(N)=O)[C@@H](C)O [Compound 222, Y-Aib-E-G-T-F-T-S-D-Y-S-I-Aib-L-E-K-Q-A-Q-Aib-A-F-V-E-W-L-I-K(1,3)-G-G-P-S-E-G-A-S-L-R-H-Y-Y-N-W-L-T-R-NMeQ-R-Y-NH2.C20DA-gGlu-gGlu-gGlu-gGlu-gGlu-gGlu-eLys(1,2)] | 72
0.09 | 0.22 | 10.7 | 29.3 | 8.4 | 2.55 | 0.91 | CC[C@H](C)[C@H](NC(=O)[C@H](CC(C)C)NC(=O)[C@H](Cc1c[nH]c2ccccc12)NC(=O)[C@H](CCC(=O)O)NC(=O)[C@@H](NC(=O)[C@H](Cc1ccccc1)NC(=O)[C@H](C)NC(=O)C(C)(C)NC(=O)[C@H](CCC(N)=O)NC(=O)[C@H](C)NC(=O)[C@H](CCC(N)=O)NC(=O)[C@H](CCCCN)NC(=O)[C@H](CCC(=O)O)NC(=O)[C@H](CC(C)C)NC(=O)C(C)(C)NC(=O)[C@@H](NC(=O)[C@H](CO)NC(=O)[C@H](Cc1ccc(O)cc1)NC(=O)[C@H](CC(=O)O)NC(=O)[C@H](CO)NC(=O)[C@@H](NC(=O)[C@H](Cc1ccccc1)NC(=O)[C@@H](NC(=O)CNC(=O)[C@H](CCC(=O)O)NC(=O)C(C)(C)NC(=O)[C@@H](N)Cc1ccc(O)cc1)[C@@H](C)O)[C@@H](C)O)[C@@H](C)CC)C(C)C)C(=O)N[C@@H](CCCCNC(=O)[C@@H](N)CCCCNC(=O)CC[C@H](NC(=O)CC[C@H](NC(=O)CC[C@H](NC(=O)CC[C@H](NC(=O)CC[C@H](NC(=O)CC[C@H](NC(=O)CCCCCCCCCCCCCCCCC(=O)O)C(=O)O)C(=O)O)C(=O)O)C(=O)O)C(=O)O)C(=O)O)C(=O)NCC(=O)NCC(=O)N1CCC[C@H]1C(=O)N[C@@H](CO)C(=O)N[C@@H](CO)C(=O)NCC(=O)N[C@@H](C)C(=O)N[C@@H](CO)C(=O)N[C@@H](CC(C)C)C(=O)N[C@@H](CCCNC(=N)N)C(=O)N[C@@H](Cc1c[nH]cn1)C(=O)N[C@@H](Cc1ccc(O)cc1)C(=O)N[C@@H](Cc1ccc(O)cc1)C(=O)N[C@@H](CC(N)=O)C(=O)N[C@@H](Cc1c[nH]c2ccccc12)C(=O)N[C@@H](CC(C)C)C(=O)N[C@H](C(=O)N[C@@H](CCCNC(=N)N)C(=O)N[C@@H](CCC(N)=O)C(=O)N[C@@H](CCCNC(=N)N)C(=O)N[C@@H](Cc1ccc(O)cc1)C(N)=O)[C@@H](C)O [Compound 259, Y-Aib-E-G-T-F-T-S-D-Y-S-I-Aib-L-E-K-Q-A-Q-Aib-A-F-V-E-W-L-I-K(1,3)-GGPSSGASLRHYYNWLTRQRY-NH2.C18DA-gGlu-gGlu-gGlu-gGlu-gGlu-gGlu-eLys(1,2)] | 36
